Source: PubChem BioAssay AID248 (DTP/NCI, 2004)
Values joined by “and” are separate entries in the source; they are usually repeats but may differ in a detail not shown here. Equal values may be shown once. Inconclusive results and toxic doses are left out.

System: L1210 leukemia ip in BDF1 mice, survival T/C
Test: NCI In Vivo Anticancer Drug Screen. Data for tumor model L1210 Leukemia (intraperitoneal) in B6D2F1 (BDF1) mice
Settings: endpoint: mean survival time, higher = longer survival
In short: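 Transplanted-tumor mice were given test agent; controls received vehicle only. Survival readings from the two groups were divided (treated over control).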

[1] = dose: 100.0 mg/kg/injection, schedule: Q01DX001 (ip), vehicle: saline
[2] = dose: 200.0 mg/kg/injection, schedule: Q01DX001 (ip), vehicle: saline
[3] = dose: 400.0 mg/kg/injection, schedule: Q01DX001 (ip), vehicle: saline
[4] = dose: 12.5 mg/kg/injection, schedule: Q01DX009 (ip), vehicle: Klucel (hydroxypropylcellulose) (HPC)
[5] = dose: 25.0 mg/kg/injection, schedule: Q01DX009 (ip), vehicle: Klucel (hydroxypropylcellulose) (HPC)
[6] = dose: 50.0 mg/kg/injection, schedule: Q01DX009 (ip), vehicle: Klucel (hydroxypropylcellulose) (HPC)
[7] = dose: 100.0 mg/kg/injection, schedule: Q04DX003 (ip), vehicle: Klucel (hydroxypropylcellulose) (HPC)
[8] = dose: 200.0 mg/kg/injection, schedule: Q04DX003 (ip), vehicle: Klucel (hydroxypropylcellulose) (HPC)
[9] = dose: 400.0 mg/kg/injection, schedule: Q04DX003 (ip), vehicle: Klucel (hydroxypropylcellulose) (HPC)
[10] = dose: 100.0 mg/kg/injection, schedule: Q04DX002 (ip), vehicle: Klucel (hydroxypropylcellulose) (HPC)
[11] = dose: 200.0 mg/kg/injection, schedule: Q04DX002 (ip), vehicle: Klucel (hydroxypropylcellulose) (HPC)
[12] = dose: 100.0 mg/kg/injection, schedule: Q01DX001 (ip), vehicle: saline with Tween-80
[13] = dose: 200.0 mg/kg/injection, schedule: Q01DX001 (ip), vehicle: saline with Tween-80
[14] = dose: 400.0 mg/kg/injection, schedule: Q01DX001 (ip), vehicle: saline with Tween-80
[15] = dose: 100.0 mg/kg/injection, schedule: Q01DX009 (ip), vehicle: Klucel (hydroxypropylcellulose) (HPC)
[16] = dose: 200.0 mg/kg/injection, schedule: Q01DX009 (ip), vehicle: Klucel (hydroxypropylcellulose) (HPC)
[17] = dose: 400.0 mg/kg/injection, schedule: Q01DX009 (ip), vehicle: Klucel (hydroxypropylcellulose) (HPC)
[18] = dose: 100.0 mg/kg/injection, schedule: Q04DX003 (ip), vehicle: saline with Tween-80
[19] = dose: 200.0 mg/kg/injection, schedule: Q04DX003 (ip), vehicle: saline with Tween-80
[20] = dose: 400.0 mg/kg/injection, schedule: Q04DX003 (ip), vehicle: saline with Tween-80
[21] = dose: 100.0 mg/kg/injection, schedule: Q01DX009 (ip), vehicle: saline with Tween-80
[22] = dose: 200.0 mg/kg/injection, schedule: Q01DX009 (ip), vehicle: saline with Tween-80

In the case of `COc1cc2c3c(c1)/C(=N\Nc1ccccc1)CCN3CCC2`, the T/C (dose: 6.25 mg/kg/injection, schedule: Q01DX009 (ip), vehicle: DMSO) is reported as 90 % of control, the T/C (dose: 12.5 mg/kg/injection, schedule: Q01DX009 (ip), vehicle: DMSO) is reported as 91 % of control and the T/C (dose: 25.0 mg/kg/injection, schedule: Q01DX009 (ip), vehicle: DMSO) is reported as 93 % of control and 90 % of control. The T/C (dose: 25.0 mg/kg/injection, schedule: Q04DX003 (ip), vehicle: DMSO) was 95 % of control, the T/C (dose: 50.0 mg/kg/injection, schedule: Q04DX003 (ip), vehicle: DMSO) was 95 % of control and the T/C (dose: 100.0 mg/kg/injection, schedule: Q04DX003 (ip), vehicle: DMSO) was 100 % of control. For the same molecule, the T/C (dose: 200.0 mg/kg/injection, schedule: Q04DX003 (ip), vehicle: gum acacia) was 92 % of control.
With `CC1(C)N=C(N)N=C(N)N1c1cccc(CCCCc2cccc(NC(=O)CBr)c2)c1` the T/C (dose: 5.0 mg/kg/injection, schedule: Q01DX001 (ip), vehicle: saline) was 102 % of control, the T/C (dose: 10.0 mg/kg/injection, schedule: Q01DX001 (ip), vehicle: saline) was 98 % of control and the T/C (dose: 20.0 mg/kg/injection, schedule: Q01DX001 (ip), vehicle: saline) was 98 % of control. The T/C (dose: 40.0 mg/kg/injection, schedule: Q01DX001 (ip), vehicle: saline) was 112 % of control.
With `Nc1nc2ncnc(N)c2nc1-c1ccc(N(CCCl)CCCl)cc1` the T/C [1] was 98 % of control, the T/C [2] was 95 % of control and the T/C [3] was 102 % of control.
`COc1ccc(CC2c3cc(OC)c(OC)cc3CC[N+]2(C)C)cc1OC` (centres undefined) was tested, and the T/C (dose: 12.5 mg/kg/injection, schedule: Q01DX009 (ip), vehicle: saline sonified) was 103 % of control, the T/C (dose: 25.0 mg/kg/injection, schedule: Q01DX009 (ip), vehicle: saline sonified) was 108 % of control and the T/C (dose: 50.0 mg/kg/injection, schedule: Q01DX001 (ip), vehicle: Klucel (hydroxypropylcellulose) (HPC)) was 95 % of control. The T/C (dose: 50.0 mg/kg/injection, schedule: Q01DX009 (ip), vehicle: saline sonified) was 102 % of control.
For `CCC[CH2][Pb]([CH2]CCC)([CH2]CCC)[O]C(C)=O`, the T/C [1] was 101 % of control and the T/C [2] was 95 % of control.
`Cc1cc(C)c(-c2c(C)cc(C)c(N)c2C)c(C)c1N` was tested, and the T/C [4] was 90 % of control, the T/C [5] was 93 % of control and the T/C [6] was 103 % of control. The T/C [7] was 109 % of control, the T/C [8] was 95 % of control and the T/C [9] was 97 % of control.
`COC1C(NC(=O)N(CCCl)N=O)C(OC(C)=O)OC(COC(C)=O)C1OC(C)=O` (centres undefined) was tested, and the T/C (dose: 1.8 mg/kg/injection, schedule: Q01DX001 (ip), vehicle: saline with Tween-80) was 118 % of control, the T/C (dose: 2.6 mg/kg/injection, schedule: Q01DX001 (ip), vehicle: saline with Tween-80) was 181 % of control and the T/C (dose: 4.0 mg/kg/injection, schedule: Q01DX001 (ip), vehicle: saline with Tween-80) was 154 % of control. The T/C (dose: 6.0 mg/kg/injection, schedule: Q01DX001 (ip), vehicle: saline with Tween-80) was 259 % of control [middle of 4 runs], the T/C (dose: 9.0 mg/kg/injection, schedule: Q01DX001 (ip), vehicle: saline with Tween-80) was 283 % of control and 162 % of control and the T/C (dose: 13.0 mg/kg/injection, schedule: Q01DX001 (ip), vehicle: saline with Tween-80) was 333 % of control and 232 % of control. For the same molecule, the T/C (dose: 20.0 mg/kg/injection, schedule: Q01DX001 (ip), vehicle: saline with Tween-80) was 155 % of control and 154 % of control and the T/C (dose: 30.0 mg/kg/injection, schedule: Q01DX001 (ip), vehicle: saline with Tween-80) was 86 % of control.
With `Cc1ccccc1OP(=S)(NN)Oc1ccccc1C` the T/C [10] was 93 % of control, the T/C [11] was 100 % of control and the T/C (dose: 400.0 mg/kg/injection, schedule: Q04DX002 (ip), vehicle: Klucel (hydroxypropylcellulose) (HPC)) was 100 % of control.
In the case of `CCCCCC#CC(C)OC(=O)Nc1cccc2ccccc12` (centres undefined), the T/C [12] is reported as 96 % of control, the T/C [13] is reported as 98 % of control and the T/C [14] is reported as 86 % of control.
With `O=C(NCCBr)Nc1ccccc1C(F)(F)F` the T/C [15] was 103 % of control, the T/C [7] was 112 % of control and the T/C [16] was 105 % of control. For the same molecule, the T/C [8] was 103 % of control, the T/C [17] was 107 % of control and the T/C [9] was 93 % of control.
`S=C(SSSSC(=S)N1CCCCC1)N1CCCCC1` was tested, and the T/C (dose: 50.0 mg/kg/injection, schedule: Q04DX003 (ip), vehicle: Klucel (hydroxypropylcellulose) (HPC)) was 97 % of control, the T/C [7] was 101 % of control and the T/C [8] was 92 % of control. For the same molecule, the T/C [9] was 92 % of control.
`Brc1ccc2c(c1)oc1ccccc12` was tested, and the T/C [15] was 102 % of control, the T/C [7] was 105 % of control and the T/C [16] was 97 % of control. For the same molecule, the T/C [8] was 107 % of control, the T/C [17] was 100 % of control and the T/C [9] was 91 % of control.
In the case of `O=C(O)C(SCc1ccccc1)c1ccccc1` (centres undefined), the T/C [1] is reported as 91 % of control, the T/C [18] is reported as 95 % of control and the T/C [2] is reported as 98 % of control. The T/C [19] was 95 % of control, the T/C [3] was 92 % of control and the T/C [20] was 101 % of control.
For `NNC(=O)CNc1ccc(F)cc1F`, the T/C [10] was 101 % of control and the T/C [11] was 114 % of control.
For `Nc1cc(Nc2ccc(S(N)(=O)=O)cc2)nc(N)n1`, the T/C [7] was 93 % of control, the T/C [8] was 97 % of control and the T/C [9] was 93 % of control.
For `Cc1cc(C)nc(NS(=O)(=O)c2ccc(NC(=O)Nc3ccc(F)cc3F)cc2)n1`, the T/C (dose: 50.0 mg/kg/injection, schedule: Q01DX009 (ip), vehicle: saline with Tween-80) was 96 % of control, the T/C [21] was 93 % of control and the T/C [22] was 101 % of control.
For `Cc1ccc(NC(=O)COc2ccc(Cl)cc2)cc1`, the T/C (dose: 100.0 mg/kg/injection, schedule: Q04DX002 (ip), vehicle: saline + alcohol) was 103 % of control, the T/C (dose: 200.0 mg/kg/injection, schedule: Q04DX002 (ip), vehicle: saline + alcohol) was 100 % of control and the T/C (dose: 400.0 mg/kg/injection, schedule: Q04DX002 (ip), vehicle: saline + alcohol) was 92 % of control.
`CN=C(Nc1ccccn1)c1ccc(NC(=O)c2ccc(C(=O)Nc3ccc(C(=NC)Nc4ccccn4)cc3)cc2)cc1` was tested, and the T/C (dose: 1.87 mg/kg/injection, schedule: Q01DX015 (ip), vehicle: methylcellulose (MC)) was 95 % of control, the T/C (dose: 3.75 mg/kg/injection, schedule: Q01DX015 (ip), vehicle: methylcellulose (MC)) was 96 % of control and the T/C (dose: 7.5 mg/kg/injection, schedule: Q01DX015 (ip), vehicle: methylcellulose (MC)) was 108 % of control. For the same molecule, the T/C (dose: 15.0 mg/kg/injection, schedule: Q01DX015 (ip), vehicle: methylcellulose (MC)) was 101 % of control.
In the case of `COc1nc(N)c(C#N)cc1C#N`, the T/C [4] is reported as 96 % of control, the T/C [5] is reported as 102 % of control and the T/C [6] is reported as 93 % of control. The T/C [7] was 92 % of control.
In the case of `CC(C)(C)NC(=O)Nc1cccc(O)c1`, the T/C [15] is reported as 95 % of control, the T/C [16] is reported as 100 % of control and the T/C [17] is reported as 104 % of control.
`CC(C)/C=N/NC(=O)CCCCCCCCC(=O)N/N=C/C(C)C` was tested, and the T/C [12] was 97 % of control, the T/C [21] was 105 % of control and 106 % of control and the T/C (dose: 100.0 mg/kg/injection, schedule: Q04DX002 (ip), vehicle: saline with Tween-80) was 97 % of control. The T/C [18] was 111 % of control, the T/C [13] was 92 % of control and the T/C [22] was 100 % of control and 108 % of control. The T/C (dose: 200.0 mg/kg/injection, schedule: Q04DX002 (ip), vehicle: saline with Tween-80) was 97 % of control, the T/C [19] was 110 % of control and the T/C [14] was 97 % of control. For the same molecule, the T/C (dose: 400.0 mg/kg/injection, schedule: Q01DX009 (ip), vehicle: saline with Tween-80) was 93 % of control and 108 % of control, the T/C (dose: 400.0 mg/kg/injection, schedule: Q04DX002 (ip), vehicle: saline with Tween-80) was 94 % of control and 95 % of control and the T/C [20] was 101 % of control.
With `C[N+]1(C)OCC2CCCC(c3ccccc3)C21` (centres undefined) the T/C (dose: 12.5 mg/kg/injection, schedule: Q01DX001 (ip), vehicle: saline) was 104 % of control, the T/C (dose: 25.0 mg/kg/injection, schedule: Q01DX001 (ip), vehicle: saline) was 102 % of control and the T/C (dose: 50.0 mg/kg/injection, schedule: Q01DX001 (ip), vehicle: saline) was 98 % of control.
